ChEMBL document CHEMBL1201862, “PubChem BioAssay data set” (2004)
Several values for one entry are separate records, joined by “and”; a condition that tells them apart may be missing. Equal entries are not always repeated.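 Following 48 hours of exposure in 96-well plates, responses at five concentrations were used to interpolate endpoints linearly. GI50: concentration for 50% inhibition of growth.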 Activity calls are given as the source filed them. Rule as the data show it: active = GI50 up to about 1.1 µM and inactive = higher.

Legend:
Experiment in all cases: DTP human tumour cell line panel, 48 h
[1] = test system: ACHN
[2] = test system: EKVX
[3] = test system: A498
[4] = test system: OVCAR-5
[5] = test system: OVCAR-8
[6] = test system: NCI-H226
[7] = test system: MDA-MB-435
[8] = test system: HOP-92
[9] = test system: SF-295
[10] = test system: COLO 205
[11] = test system: DU-145
[12] = test system: HCT-116
[13] = test system: LOX IMVI
[14] = test system: A549
[15] = test system: SK-MEL-5
[16] = test system: SF-268
[17] = test system: HCT-15
[18] = test system: TK-10
[19] = test system: SR
[20] = test system: HCC 2998

Row | SMILES | GI50 [1] | GI50 [2] | GI50 [3] | GI50 [4] | GI50 [5] | GI50 [6] | GI50 [7] | GI50 [8] | GI50 [9] | GI50 [10] | GI50 [11] | GI50 [12] | GI50 [13] | GI50 [14] | GI50 [15] | GI50 [16] | GI50 [17] | GI50 [18] | GI50 [19] | GI50 [20]
1 | O=C1CCC(c2ccccc2)(c2ccccc2)CC1 | > 100 µM (inactive) | 92.3 µM (inactive) | > 100 µM (inactive) | > 100 µM (inactive) | > 100 µM (inactive) | 36.6 µM (inactive) | > 100 µM (inactive) | > 100 µM (inactive) | > 100 µM (inactive) | 27.9 µM (inactive) | > 100 µM (inactive) | 41.3 µM (inactive) | > 100 µM (inactive) | 49.4 µM (inactive) | 30.7 µM (inactive) | > 100 µM (inactive) | 47.4 µM | 85.9 µM (inactive) | 37.8 µM (inactive) | –
2 | COC(=O)C1=C(C)NC2=C(C(=O)c3ccccc32)C1c1c[nH]nc1-c1ccccc1 (stereo not drawn) | 35.2 µM (inactive) | 16.1 µM (inactive) | 48.5 µM (inactive) | > 100 µM (inactive) | 38.1 µM (inactive) | 41.2 µM (inactive) | 57.4 µM (inactive) | > 100 µM (inactive) | > 100 µM (inactive) | 20.9 µM (inactive) | > 100 µM (inactive) | > 100 µM (inactive) | – | 47.6 µM (inactive) | 31.8 µM (inactive) | 26.2 µM (inactive) | 62.5 µM | – | 24.4 µM (inactive) | –
3 | Cn1c2c(c3c(=O)[nH]ncc31)CCc1ccccc1-2 | 25.4 µM (inactive) | 12.9 µM (inactive) | 16.3 µM (inactive) | 45.6 µM (inactive) | 57.3 µM (inactive) | 29.4 µM (inactive) | 32.1 µM (inactive) | 44.8 µM (inactive) | 32.9 µM (inactive) | 30 µM (inactive) | 35.7 µM (inactive) | 20.1 µM (inactive) | 17.6 µM (inactive) | 29.1 µM (inactive) | 17.8 µM (inactive) | 31.2 µM (inactive) | 24.8 µM | 17.7 µM (inactive) | 20.5 µM (inactive) | –
4 | O=c1cc(-c2ccccc2)[nH]c2ccc(S)cc12 | 30.2 µM (inactive) | – | – | 86.3 µM (inactive) | 31.7 µM (inactive) | 16.1 µM (inactive) | 21.4 µM (inactive) | 35.8 µM (inactive) | 38.5 µM (inactive) | 38.3 µM (inactive) | 52.2 µM (inactive) | 24.4 µM (inactive) | – | 52.1 µM (inactive) | 15.5 µM (inactive) | 41.9 µM (inactive) | 16.8 µM | 33.9 µM (inactive) | 30.8 µM (inactive) | 21 µM (inactive)
5 | Cc1ccc(/C=C2/N/C(=N\N=C/C(O)C(O)C(O)CO)NC2=O)cc1 (stereo not drawn) | > 100 µM (inactive) | > 100 µM (inactive) | > 100 µM (inactive) | > 100 µM (inactive) | > 100 µM (inactive) | 63.5 µM (inactive) and 66.2 µM (inactive) | > 100 µM (inactive) | > 100 µM (inactive) | > 100 µM (inactive) | > 100 µM (inactive) | > 100 µM (inactive) | > 100 µM (inactive) | > 100 µM (inactive) | > 100 µM (inactive) | > 100 µM (inactive) | > 100 µM (inactive) | 89.9 µM and 79.1 µM | > 100 µM (inactive) | > 100 µM (inactive) | –
6 | CCOC(=O)c1sc2c(c1OC(=O)c1ccc(Cl)cc1Cl)c(=O)n(-c1ccccc1)c(=S)n2-c1ccccc1 | 4.85 µM (inactive) | 17.1 µM (inactive) | 5.08 µM (inactive) | 35.4 µM (inactive) | 6.11 µM (inactive) | 6.73 µM (inactive) | > 51.2 µM (inactive) | 3.49 µM (inactive) | 6.76 µM (inactive) | 3.94 µM (inactive) | 31.1 µM (inactive) | 8.13 µM (inactive) | 20.8 µM (inactive) | 8.55 µM (inactive) | 11.7 µM (inactive) | 8.02 µM (inactive) | 5.08 µM | 17 µM (inactive) | – | 24.5 µM (inactive)
7 | CC(C)OC(=O)NNc1cc(Cl)ccc1Cl | > 100 µM (inactive) | 30.8 µM (inactive) | 24.3 µM (inactive) | > 100 µM (inactive) | > 100 µM (inactive) | – | > 100 µM (inactive) | 34.8 µM (inactive) | 62.8 µM (inactive) | > 100 µM (inactive) | > 100 µM (inactive) | 73.3 µM (inactive) | 67.3 µM (inactive) | 64 µM (inactive) | 39.4 µM (inactive) | 44.8 µM (inactive) | 91.2 µM | 36.6 µM (inactive) | – | 61 µM (inactive)
